± gives the standard deviation of the averaged measurements.
Tests used:
PACLITAXEL = compound: CC(=O)O[C@H]1C(=O)[C@@]2(C)[C@H]([C@H](OC(=O)c3ccccc3)[C@]3(O)C[C@H](OC(=O)[C@H](O)[C@@H](NC(=O)c4ccccc4)c4ccccc4)C(C)=C1C3(C)C)[C@]1(OC(C)=O)CO[C@@H]1C[C@@H]2O [PACLITAXEL]; assay: surviving fraction relative to DMSO-only wells; higher = less growth inhibition; settings: exposure time: 5 days
Procedure, shortened: (§1)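 Each tumour cell line was screened three times, and only lines with replicate Pearson r >0.7 and median Z' >0.3 were kept. Cells in log phase were seeded at 250–500 per well in 384-well plates, left 24 hours, then exposed continuously for five days to inhibitors at 0.5, 1, 5, 10, 50, 100, 500 and 1000 nM. Viability was read as CellTiter-Glo luminescence, with surviving fraction normalised to the median of DMSO-only wells.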

CARBOPLATIN = compound: O=C(O)C1(C(=O)O)CCC1.[NH2-].[NH2-].[Pt+2] [CARBOPLATIN]; assay: as above; settings: exposure time: 5 days
Procedure, shortened: as §1

Row | Test System | surviving fraction (PACLITAXEL; 0.5 nM) | surviving fraction (PACLITAXEL; 1 nM) | surviving fraction (PACLITAXEL; 5 nM) | surviving fraction (PACLITAXEL; 10 nM) | surviving fraction (PACLITAXEL; 50 nM) | surviving fraction (PACLITAXEL; 100 nM) | surviving fraction (PACLITAXEL; 500 nM) | surviving fraction (PACLITAXEL; 1000 nM) | surviving fraction (CARBOPLATIN; 0.5 nM) | surviving fraction (CARBOPLATIN; 1 nM) | surviving fraction (CARBOPLATIN; 5 nM) | surviving fraction (CARBOPLATIN; 10 nM) | surviving fraction (CARBOPLATIN; 50 nM) | surviving fraction (CARBOPLATIN; 100 nM) | surviving fraction (CARBOPLATIN; 500 nM) | surviving fraction (CARBOPLATIN; 1000 nM)
1 | MDAMB436 BREAST | 0.794 ± 0.033 | 0.684 ± 0.015 | 0.314 ± 0.022 | 0.21 ± 0.0036 | 0.192 ± 0.03 | 0.173 ± 0.016 | 0.171 ± 0.014 | 0.198 ± 0.018 | 0.923 ± 0.041 | 0.92 ± 0.019 | 0.998 ± 0.15 | 0.924 ± 0.11 | 1.09 ± 0.21 | 0.906 ± 0.078 | 1.02 ± 0.033 | 0.924 ± 0.088
2 | MDAMB453 BREAST | 0.988 ± 0.082 | 0.998 ± 0.096 | 0.382 ± 0.051 | 0.303 ± 0.02 | 0.164 ± 0.014 | 0.145 ± 0.016 | 0.131 ± 0.015 | 0.134 ± 0.015 | 1.07 ± 0.068 | 1.05 ± 0.07 | 1.15 ± 0.024 | 1.1 ± 0.076 | 1.07 ± 0.018 | 1.1 ± 0.069 | 1.01 ± 0.02 | 0.993 ± 0.011
3 | MDAMB468 BREAST | 0.973 ± 0.024 | 0.771 ± 0.056 | 0.144 ± 0.018 | 0.0737 ± 0.0015 | 0.064 ± 0.001 | 0.0567 ± 0.0091 | 0.057 ± 0.0036 | 0.0563 ± 0.013 | 0.973 ± 0.031 | 0.96 ± 0.067 | 1.07 ± 0.032 | 0.991 ± 0.046 | 1.1 ± 0.1 | 1.02 ± 0.019 | 1.08 ± 0.063 | 0.975 ± 0.072
4 | MFM223 BREAST | 0.948 ± 0.056 | 0.736 ± 0.066 | 0.295 ± 0.026 | 0.129 ± 0.012 | 0.0873 ± 0.012 | 0.0663 ± 0.003 | 0.062 ± 0.0051 | 0.0632 ± 0.0075 | 1.22 ± 0.071 | 1.22 ± 0.18 | 1.22 ± 0.18 | 1.15 ± 0.18 | 1.16 ± 0.021 | 1.12 ± 0.094 | 1.11 ± 0.077 | 1.06 ± 0.11
5 | MG63 BONE | 0.901 ± 0.049 | 0.881 ± 0.021 | 0.263 ± 0.016 | 0.095 ± 0.01 | 0.0463 ± 0.0055 | 0.038 ± 0.0044 | 0.0287 ± 0.0015 | 0.03 ± 0.002 | 1.08 ± 0.043 | 1 ± 0.023 | 1.08 ± 0.031 | 1.07 ± 0.045 | 1.08 ± 0.034 | 1.076 ± 0.004 | 1.05 ± 0.055 | 1.01 ± 0.032
6 | MHM BONE | 0.9897 ± 0.0049 | 0.992 ± 0.053 | 0.535 ± 0.021 | 0.339 ± 0.022 | 0.243 ± 0.0095 | 0.216 ± 0.011 | 0.187 ± 0.0059 | 0.177 ± 0.01 | 1.01 ± 0.027 | 1.02 ± 0.025 | 1.08 ± 0.044 | 1.06 ± 0.058 | 1.09 ± 0.014 | 1.07 ± 0.028 | 1.02 ± 0.04 | 1.035 ± 0.0078
7 | NCIH441 LUNG | 0.961 ± 0.12 | 0.93 ± 0.046 | 0.529 ± 0.0097 | 0.429 ± 0.032 | 0.261 ± 0.013 | 0.303 ± 0.018 | 0.284 ± 0.013 | 0.304 ± 0.02 | 1.08 ± 0.027 | 1.12 ± 0.063 | 1.08 ± 0.049 | 1.13 ± 0.093 | 1.07 ± 0.2 | 0.961 ± 0.091 | 1.02 ± 0.16 | 1.04 ± 0.21
8 | NY BONE | 0.938 ± 0.019 | 0.334 ± 0.015 | 0.0363 ± 0.0075 | 0.0327 ± 0.005 | 0.0363 ± 0.0055 | 0.026 ± 0.0076 | 0.0307 ± 0.0038 | 0.0293 ± 0.0057 | 1.03 ± 0.02 | 0.9813 ± 0.0058 | 1.08 ± 0.019 | 1.03 ± 0.024 | 1.09 ± 0.019 | 1.099 ± 0.0055 | 1.05 ± 0.012 | 1.03 ± 0.016
9 | OS25HAL BONE | 0.99 ± 0.023 | 0.993 ± 0.039 | 0.29 ± 0.028 | 0.118 ± 0.007 | 0.077 ± 0.0062 | 0.0677 ± 0.011 | 0.0523 ± 0.0029 | 0.0687 ± 0.017 | 1.09 ± 0.045 | 1.03 ± 0.019 | 0.994 ± 0.034 | 1.03 ± 0.019 | 1.18 ± 0.025 | 1.17 ± 0.053 | 1.06 ± 0.04 | 1.14 ± 0.029
10 | OSHN BONE | 1.03 ± 0.025 | 1.05 ± 0.012 | 0.0353 ± 0.0015 | 0.0313 ± 0.0011 | 0.0273 ± 0.00058 | 0.0243 ± 0.00058 | 0.018 | 0.022 ± 0.001 | 1.091 ± 0.0051 | 1.06 ± 0.022 | 1.09 ± 0.035 | 1.05 ± 0.044 | 1.141 ± 0.0049 | 1.13 ± 0.015 | 1.15 ± 0.014 | 1.113 ± 0.011
11 | PCI30 HEADNECK | 0.721 ± 0.06 | 0.355 ± 0.044 | 0.199 ± 0.022 | 0.114 ± 0.03 | 0.0853 ± 0.011 | 0.0737 ± 0.016 | 0.0753 ± 0.016 | 0.071 ± 0.0061 | 1.07 ± 0.036 | 1.09 ± 0.04 | 1.03 ± 0.021 | 1.11 ± 0.093 | 1.12 ± 0.067 | 1.08 ± 0.03 | 1.07 ± 0.079 | 1.07 ± 0.039
12 | RDES SOFT TISSUE | 1.099 ± 0.0061 | 1.22 ± 0.22 | 0.189 ± 0.067 | 0.129 ± 0.014 | 0.0673 ± 0.009 | 0.0537 ± 0.0058 | 0.056 ± 0.011 | 0.0623 ± 0.004 | 1.23 ± 0.035 | 0.987 ± 0.091 | 1.14 ± 0.1 | 1.11 ± 0.083 | 1.09 ± 0.15 | 1.23 ± 0.13 | 1.08 ± 0.099 | 1.15 ± 0.14
13 | S68 BREAST | 0.815 ± 0.052 | 0.575 ± 0.13 | 0.197 ± 0.045 | 0.134 ± 0.026 | 0.14 ± 0.0047 | 0.144 ± 0.025 | 0.114 ± 0.0076 | 0.122 ± 0.0061 | 1.08 ± 0.28 | 1.01 ± 0.082 | 0.9 ± 0.16 | 1.4 ± 0.15 | 1.22 ± 0.6 | 1.14 ± 0.38 | 1.11 ± 0.21 | 1.29 ± 0.11
14 | SAOS2 BONE | 1.08 ± 0.043 | 1.06 ± 0.018 | 0.46 ± 0.043 | 0.165 ± 0.013 | 0.0527 ± 0.004 | 0.0527 ± 0.00058 | 0.0447 ± 0.0063 | 0.0557 ± 0.0063 | 1.1 ± 0.048 | 1.18 ± 0.014 | 1.18 ± 0.059 | 1.16 ± 0.073 | 1.15 ± 0.051 | 1.06 ± 0.11 | 1.09 ± 0.097 | 0.943 ± 0.22
15 | SCC003 HEADNECK | 0.945 ± 0.11 | 0.805 ± 0.075 | 0.324 ± 0.037 | 0.27 ± 0.028 | 0.192 ± 0.01 | 0.196 ± 0.031 | 0.179 ± 0.021 | 0.166 ± 0.018 | 1.1 ± 0.075 | 1.06 ± 0.04 | 1.1 ± 0.039 | 1.04 ± 0.025 | 1.14 ± 0.027 | 1.03 ± 0.035 | 1.13 ± 0.17 | 0.995 ± 0.051
16 | SCC36 HEADNECK | 0.966 ± 0.035 | 0.8 ± 0.0036 | 0.246 ± 0.041 | 0.154 ± 0.042 | 0.103 ± 0.007 | 0.109 ± 0.026 | 0.108 ± 0.006 | 0.114 ± 0.017 | 1.07 ± 0.03 | 0.992 ± 0.15 | 1.09 ± 0.096 | 1.07 ± 0.097 | 1.06 ± 0.17 | 1.04 ± 0.078 | 1.05 ± 0.031 | 0.85 ± 0.12
